Source: US20060275800A1, “Process for characterization of the transactivation and transrepression activity of glucocorticoid receptor ligands in primary immune cells” (priority 2005, published 2006)

Tests used:
Format in all cases: cell-based
CD163 [1] = assay: In vitro mRNA expression of CD163 (transactivation parameter) in unstimulated human PBMC cultures; details: for Transactivation vs. Prednisolone CD163: mRNA, PBMC cultures, GR-ligand/prednisolone quotient
Description: (§1) Regarding the definition of suitable parameters, the regulation, mediated by standard glucocorticoids and selective GR ligands, of more than 50 genes in primary human immune cells was examined in a broad screening approach. Selected genes were further characterized in vitro and in vivo in kinetic experiments. […] Decisive criteria for the parameter selection were 1) the consistent reflection of transactivation or transrepression properties of GR ligands, 2) the detection of the regulation in non-stimulated immune cells, and 3) the quick reaction of the gene expression in in vitro assays (the 4-hour time period was used for the screening), and the good and enduring detectability after in vivo application of GR ligands. These properties make it likely that a direct regulation of the gene expression by the GR ligands will take place and that the parameters will be usable in in vivo studies (e.g., as biomarkers).
(§2) To have a comparison with a standard GK, the GR-ligand-influenced gene expressions for these parameters were normalized to the gene expression after treatment with the standard GK, prednisolone. […] It is clear to one skilled in the art that the normalization could also in principle be related to any other glucocorticoid.
(§3) For gene suppression, the “prednisolone/GR ligand” quotient was derived for purposes of normalization, i.e., a lower value (<1) indicates a relatively weaker suppression by the GR ligands (higher values in the residual gene expression).
(§4) For the mRNA detection, the total RNA was isolated from the respective samples (human PBMC or human whole blood or spleen cells from mice), transcribed in the cDNA and amplified and detected below by means of Real-time TaqMan-PCR (Applied Biosystems). A relative quantification in comparison to the expression of the “house-keeping” gene HPRT was carried out. In each case, the ratio of the result for the GR ligands to the result of the vehicle control is plotted.

FKBP51 [2] = assay: In vitro mRNA expression of FKBP51 (transactivation parameter) in unstimulated human PBMC cultures; details: for Transactivation vs. Prednisolone FKBP51: mRNA, PBMC cultures, GR-ligand/prednisolone quotient
Description: as §1, §2, §3, §4

IL-1β = assay: In vitro mRNA expression of IL-1β (transrepression parameter) in unstimulated human PBMC cultures; details: for Transrepression vs. Prednisolone IL-1β: mRNA, PBMC cultures, prednisolone/GR ligand quotient
Description: as §1, §2, §3, §4

TNF-α = assay: In vitro mRNA expression of TNF-α (transrepression parameter) in unstimulated human PBMC cultures; details: for Transrepression vs. Prednisolone TNF-α: mRNA, PBMC cultures, prednisolone/GR ligand quotient
Description: as §1, §2, §3, §4

CD163 [3] = assay: Time-dependent CD163 mRNA expression in human whole-blood cultures
Method: as §4
(§5) For the parameters CD163 and FKBP51, in addition, the time-dependent influence of CR ligands on the mRNA expression in human whole-blood cultures was examined.

FKBP51 [4] = assay: Time-dependent FKBP51 mRNA expression in human whole-blood cultures
Method: as §4, §5

[5] = test system: transrepression (TNF-α and IL-1β) and transactivation (CD163 and FKBP51); assay: Transrepression/transactivation ratio (dissociation factor) in human PBMC cultures; details: PBMC cultures, 1, 2, 4, 12 and 24 hours
Description: As parameters that could [make] reference to the mechanism of the transrepression, TNF-α and IL-1β were selected. CD163 and FKBP51 are used to detect the transactivation activity.
Below, a ratio between the transrepression and transactivation parameters that are normalized to prednisolone was derived according to formula 2: [formula]
The factors for the transactivation and transrepression activity were averaged geometrically and put into a ratio with one another. […] The higher the ratio, the more dissociated the GR ligand is in comparison to prednisolone (ratio=1). [drawing]
Figure: Ratios for Visualization of the In Vitro Dissociation of the GR Ligands in Comparison to Prednisolone in PBMC Cultures (n—3) after 1, 2, 4, 12 and 24 Hours.
The ratios were calculated after the normalization of the gene expression values to prednisolone from the quotient of the geometric means of the parameters for transrepression (TNF-α and IL-1β) and for transactivation (CD163 and FKBP51). Mean values±SD.

[6] = human PBMC cultures, single substance

C[C@]12C=CC(=O)C=C1CC[C@@H]1[C@@H]2[C@@H](O)C[C@@]2(C)[C@H]1CC[C@]2(O)C(=O)CO [Prednisolone, prednisolone]
induction of CD163 (in words) (CD163 [1]; [6]): induced
Transactivation vs. Prednisolone CD163 (CD163 [1]; 1 hour): 1.00
Transactivation vs. Prednisolone CD163 (CD163 [1]; 2 hours): 1.00
Transactivation vs. Prednisolone CD163 (CD163 [1]; 4 hours): 1.00
Transactivation vs. Prednisolone CD163 (CD163 [1]; 12 hours): 1.00
Transactivation vs. Prednisolone CD163 (CD163 [1]; 24 hours): 1.00
induction of FKBP51 (in words) (FKBP51 [2]; [6]): induced
Transactivation vs. Prednisolone FKBP51 (FKBP51 [2]; 1 hour): 1.00
Transactivation vs. Prednisolone FKBP51 (FKBP51 [2]; 2 hours): 1.00
Transactivation vs. Prednisolone FKBP51 (FKBP51 [2]; 4 hours): 1.00
Transactivation vs. Prednisolone FKBP51 (FKBP51 [2]; 12 hours): 1.00
Transactivation vs. Prednisolone FKBP51 (FKBP51 [2]; 24 hours): 1.00
suppression of the mRNA expression of IL-1β (in words) (IL-1β; [6]): suppression
Transrepression vs. Prednisolone IL-1β (IL-1β; 1 hour): 1.00
Transrepression vs. Prednisolone IL-1β (IL-1β; 2 hours): 1.00
Transrepression vs. Prednisolone IL-1β (IL-1β; 4 hours): 1.00
Transrepression vs. Prednisolone IL-1β (IL-1β; 12 hours): 1.00
Transrepression vs. Prednisolone IL-1β (IL-1β; 24 hours): 1.00
suppression of the mRNA expression of TNF-α (in words) (TNF-α; [6]): suppression
Transrepression vs. Prednisolone TNF-α (TNF-α; 1 hour): 1.00
Transrepression vs. Prednisolone TNF-α (TNF-α; 2 hours): 1.00
Transrepression vs. Prednisolone TNF-α (TNF-α; 4 hours): 1.00
Transrepression vs. Prednisolone TNF-α (TNF-α; 12 hours): 1.00
Transrepression vs. Prednisolone TNF-α (TNF-α; 24 hours): 1.00
time-dependent influence on CD163 mRNA expression (CD163 [3]): induced the expression of these genes permanently
time-dependent influence on FKBP51 mRNA expression (FKBP51 [4]): induced the expression of these genes permanently
dissociation factor (transrepression/transactivation ratio vs prednisolone) [5]: largely comparable
